In patent publication US20070015834A1 (priority 2005, published 2007):

Assay: Small volume in vitro release test in 50 ml 0.1N HCl (model of fasted stomach)
Type: physicochemical
Settings: 37° C., 150 rpm
Procedure: The formulations were tested for their small volume in vitro release characteristics in 50 ml 0.1N HCl at 37° C. and 150 rpm using the following procedure: III. Instrumentation (or Equivalent) a. Automated Dissolution System comprising of: Hanson SR8 Plus Test Station Hanson Auto Plus Maximiser System Controller Hanson Auto Plus MultiFill Fraction Collector b. HPLC System comprising of: pump—Merck Hitachi L-7100 autoinjector—Merck Hitachi L-7200 column oven—Merck Hitachi L-7300 detector—Merck Hitachi L-7400 interface and integration software—Merck Hitachi D-7000
0.1N HCl Preparation Dilute 8.5 ml HCl 37% to 1 liter with purified water. Procedure Place one weighed capsule in each vessel containing 0.1N HCl and immediately operate the apparatus for 30 min. Unless otherwise specified, 3 ml samples are withdrawn from each vessel and immediately filtered through PTFE membranes at 15 and 30 min.
The small volume was chosen as a model of the conditions in a fasted stomach.

For `CC(C)OC(=O)C(C)(C)Oc1ccc(C(=O)c2ccc(Cl)cc2)cc1` [Micronized Fenofibrate], the “dissolution in 50 ml 0.1N HCl (in words)” value was “no dissolution at all”, the “% dissolved 15 min” value (15 min) was 0% and the “% dissolved 30 min” value (30 min) was 0%.
